Experiments:
Hs 294T tumors = experiment: Melanoma tumor growth in nude mice; format: in vivo; conditions: 75 mg/kg orally once daily, 21 days, vs vehicle
[1] = Body weight and tolerability in treated tumor-bearing mice; format: in vivo
CXCL1 = CXCL1 ELISA of serum of mice bearing melanoma tumors; format: in vivo
Experimental: FIGS. 2A-2D. […] SK-Mel-5 cells were plated in 6-well plates (1.5×10^5 cells per well) and then cotransfected with 1 μg of HIV long terminal repeat NF-κB-luciferase vector and β-galactosidase vector DNA using Lipofectamine Plus reagent. Twenty-four hours after transfection, cells in duplicate plates were treated with 0, 0.1, 1 and 10 μM of BMS-345541in DMSO and incubated for an additional 36 h. Cell extract was prepared and luciferase activity was detected. Luciferase activity was normalized to β-galactosidase activity. […] ATP. The [γ-^32P]-labeled IκBα protein was visualized by autoradiography. […] The supernatants from B were cleared by centrifugation, or (FIG. 2D) sera were collected from mice, and subjected to ELISA assay for CXCL1 according to the manufacture's protocol. Data shown are from a representative data set from two experiments performed in duplicate (total n=4 for each point). For ELISA; the mean value is representative of serum samples from five mice.
To quantify the CXCL1 expression levels in vivo and in vitro, serum was collected at the end of the experiments from mice bearing SK-Mel-5 melanoma tumors or from the cleared supernatants of melanoma cell culture medium. Briefly, 1.5×10^5 of SK-Mel-5 cells/well were seeded in six-well plates in duplicate in DMEM/F12 medium containing 10% FBS.

SK-Mel-5 cells [2] = experiment: TUNEL assay of cultured cells by flow cytometry; format: cell-based, human; conditions: 36 h
Experimental: FIGS. 4A-4H. […] Paraffin-embedded tumor tissues were subjected to H&E staining (FIGS. 4C & D) and DeadEnd Fluorometric TUNEL-assay for detection of apoptosis (FIGS. 4E & F). The TUNEL-positive cells are visualized in green fluorescence in a red (Propidium Iodide) background by fluorescence microscopy. […] After 36 h incubation, cells were collected and fixed with 1% formaldehyde and 70% ice-cold ethanol. The apoptotic cells were examined using TUNEL-assay and analyzed by flow cytometry through measuring fluorescein-12-dUTP at 520 nm. The apoptotic rate is indicated in each box. Data shown are represented one of three independent experiments. […] Cells were fixed and stained with Propidium iodide. Cell fluorescence was measured by flow cytometry and the data were analyzed using DNA content histogram deconvolution software (Multicycle from Phoenix Flow Systems). The percentage of apoptotic cells with fragmented DNA (PI intensity sub-G0/G1) is indicated at each time point. The experiments were repeated twice, in duplicates for each point (total n=4).
In melanoma, constitutive activation of NF-κB confers tumor survival capacity and escape from apoptosis (Richmond, 2002). […] Apoptotic cells were labeled using DeadEnd Fluorometric TUNEL reagent and analyzed by flow cytometry. […] Thirty-six hours after transfection, cells were collected, labeled with TUNEL reagent and analyzed by flow cytometry. […] Induction of DNA fragmentation, a hallmark of apoptosis, was evaluated by staining DNA with ethidium bromide followed by quantization by FACS analysis.

SK-Mel-5 cells [3] = experiment: Mitochondrial membrane potential (Δψm), DiOC6 and FACS; format: cell-based, human; conditions: SK-Mel-5, 10 μM
Experimental: FIGS. 5A-5E. […] (FIG. 5A) Redistribution of Bcl-2 and Bax in mitochondria. […] Subcellular mitochondria and cytoplasm were prepared and subjected to Western blot analysis for Bcl-2 and Bax. (FIG. 5B) Dissipation of mitochondrial Δψm. […] After exposure, mitochondria were isolated and incubated with 80 μM 3,3′dihexyloxacarbocyanine iodide (DiOC6) at 37° C. for 15 min. Δψm was determined by FACS analysis using 484/530 nm filters within 10 min while gating the forward and sideward scatters on intact mitochondria (FIG. 5C). (FIG. 5D) Release of cytochrome-C and AIF. […] Subcellular extracts were prepared and subjected to Western blot analysis for cytochrome-C and AIF. […] The supernatant was assessed for cytochrome-c release. […]
For quantification of cell death, DNA content was analyzed on a FACScan (Becton Dickinson, San Jose, Calif.). […] Cell fluorescence was measured by flow cytometry with 488 nm excitation and 620 nm emission filters and data were analyzed using DNA content histogram deconvolution software (Multicycle, Phoenix Flow Systems). […] ROS were determined by FACS analysis with 488 nm excitation and 585 emission filters.
Mitochondria play a crucial role in the regulation of programmed cell death (Zamzami et al., 1995a; 1995b; 1996a; 1996b). […] The change in mitochondrial membrane potential (Δψm) was determined by FACS analysis after the mitochondria were stained with DiOC6.

caspase-3 = experiment: Caspase-3 activity assay (Ac-DEVD-pNA) in cytosol extracts; format: cell-based, human

Cc1ccc2nc(NCCN)c3ncc(C)n3c2c1.Cl [BMS-345541, 4(2′-aminoethyl)amino-1,8-dimethylimidazo(1,2-a)quinoxaline]
inhibition of tumor growth (Hs 294T tumors): 67±3.4%
average loss of body weight ([1]; 10 mg/kg orally once daily): 5%
average loss of body weight ([1]; 25 mg/kg orally once daily): 9%
average loss of body weight ([1]; 75 mg/kg orally once daily): 14%
tolerability in mice ([1]; oral, once daily, 21 days): well tolerated
CXCL1 expression in mouse sera (CXCL1): suppressed in a concentration-dependent manner
increase in apoptotic cells vs vehicle (TUNEL) (SK-Mel-5 cells [2]; SK-Mel-5, 1.0 μM): 2 fold
increase in apoptotic cells vs vehicle (TUNEL) (SK-Mel-5 cells [2]; SK-Mel-5, 10 μM): 3.3 fold
increase in apoptotic cells vs vehicle (TUNEL) (SK-Mel-5 cells [2]; SK-Mel-5, 100 μM): 4 fold
loss of mitochondrial membrane potential (SK-Mel-5 cells [3]; 24 h): 16±1.5%
loss of mitochondrial membrane potential (SK-Mel-5 cells [3]; 48 h): 87±5.4%
specific caspase-3 activity (caspase-3; SK-Mel-5, 10 μM BMS-345541, 36 h): 1.6±0.092 pmol/min/μg protein
specific caspase-3 activity (caspase-3; SK-Mel-5, 10 μM BMS-345541 in combination with 50 μM Z-VAD-fmk, 36 h): 0.44±0.035 pmol/min/μg protein
